One data set concerns the target human α-thrombin (Homo sapiens, UniProt P00734). The data set is classed as biochemical. Particulars: for fold decrease in potency from 9a: ratio of IC50s; for logIC50 / HS (Hill slope): pH 7.4, 25 °C, Spectrozyme TH.
A further data set is described as follows: Water solubility. Type of data set: physicochemical. As to conditions: devoid of any sulfate group.
The target in another data set is thrombin (Homo sapiens, UniProt P00734). Nature of the data set: Sequential inhibition of thrombin by 9a and PPACK. Particulars: PPACK added following inhibition by 9a (Figure S10). The data set is classed as biochemical.

Where “and” joins values, the source holds several entries; their conditions need not be identical. Equal entries are not always repeated. Marks after values point to notes of the source that are not given here.

In the case of `CCOC(=O)c1c(C)oc2cc(OC)c(OCc3oc4cc(OC)c(OCc5oc6cc(OC)c(OS(=O)(=O)[O-])cc6c5C(=O)OCCOC)cc4c3C(=O)OCC)cc12.[Na+]` [9d], the “fold decrease in potency from 9a” value on human α-thrombin is reported as over 500 fold.

As for `CCOC(=O)c1c(C)oc2cc(OC)c(OCc3oc4cc(OC)c(OCc5oc6cc(OC(C)C)c(OS(=O)(=O)[O-])cc6c5C(=O)OCC)cc4c3C(=O)OCC)cc12.[Na+]` [9g], on human α-thrombin, the logIC50 is ~ −4.0 ^d and the “fold decrease in potency from 9a” value was 148 fold.

Regarding `CCOC(=O)c1c(COc2cc3c(C(=O)O)c(C)oc3cc2OC)oc2cc(OC)c(OCc3oc4cc(OC)c(OS(=O)(=O)[O-])cc4c3C(=O)OCC)cc12.[Na+]` [compound 14], the “fold reduction in potency from 13” value on human α-thrombin (allyl ester to carboxylic acid) was 2 fold. On human α-thrombin, the “HS (Hill slope)” value is reported as 1.0 ^c and the logIC50 is on record as −4.18 ± 0.17.

`CCOC(=O)c1c(COc2cc3c(C(=O)OCC)c(COc4cc5c(C(=O)O)c(C)oc5cc4OC)oc3cc2OC)oc2cc(OC)c(O)cc12` [compound 12]: the water solubility entry in “Water solubility” is on record as “fairly good water solubility”.

As for `CCOC(=O)c1c(C)oc2cc(OC)c(OCc3oc4cc(OC)c(OCc5oc6cc(OCC)c(OS(=O)(=O)[O-])cc6c5C(=O)OCC)cc4c3C(=O)OCC)cc12.[Na+]` [9f], at human α-thrombin, the “HS (Hill slope)” value came to 2.3 ± 1.2, the logIC50 is given as −5.23 ± 0.11 and the “fold decrease in potency from 9a” value came to 8.6 fold.

As to `CCOC(=O)c1c(C)oc2cc(OC)c(OCc3oc4cc(OC)c(OCc5oc6cc(OC)c(OCc7oc8cc(OC)c(OS(=O)(=O)[O-])cc8c7C(=O)OCC)cc6c5C(=O)OCC)cc4c3C(=O)OCC)cc12.[Na+]` [compound 17], on human α-thrombin, the “HS (Hill slope)” value is on record as 1.0 ^c; the logIC50 is recorded as −3.80 ± 0.15; the “fold decrease in potency from 9a” value was ~236 fold and 225 fold.

On to `CCOC(=O)c1c(C)oc2cc(OC)c(OCc3oc4cc(OC)c(OCc5oc6cc(OC)c(OS(=O)(=O)[O-])cc6c5C(=O)OC)cc4c3C(=O)OCC)cc12.[Na+]` [9b], for which, on human α-thrombin, the “HS (Hill slope)” value is recorded as 1.0 ^c and the logIC50 is −5.69 ± 0.13.

Take `CCOC(=O)c1c(C)oc2cc(OC)c(OCc3oc4cc(OC)c(OCc5oc6cc(OC)c(OS(=O)(=O)[O-])cc6c5C(=O)OC(C)(C)C)cc4c3C(=O)OCC)cc12.[Na+]` [9c]: at human α-thrombin, the “HS (Hill slope)” value was found to be 2.1 ± 0.5 and the logIC50 is recorded as −3.78 ± 0.07.

`C=CCOC(=O)c1c(C)oc2cc(OC)c(OCc3oc4cc(OC)c(OCc5oc6cc(OC)c(OS(=O)(=O)[O-])cc6c5C(=O)OCC)cc4c3C(=O)OCC)cc12.[Na+]` [compound 13]: on human α-thrombin, the “HS (Hill slope)” value is listed as 3.5 ± 1.2, the logIC50 is −4.51 ± 0.06 and the “fold decrease in potency from 9a” value was 46 fold.

`CCOC(=O)c1c(C)oc2cc(OC)c(OCc3oc4cc(OC)c(OCc5oc6cc(OS(=O)(=O)[O-])c(OC)cc6c5C(=O)OCC)cc4c3C(=O)OCC)cc12.[Na+]` [compound 23]: at human α-thrombin, the “HS (Hill slope)” value was 1.2 ± 0.3 and the logIC50 is on record as −3.81 ± 0.13.

In the case of `N=C(N)NCCC[C@H](NC(=O)[C@@H]1CCCN1C(=O)[C@H](N)Cc1ccccc1)C(=O)CCl` [PPACK, D-Phe-Pro-Arg-chloromethylketone], the “thrombin activity after sequential inhibition” value at thrombin was “totally inactive”.
